Literature values, collected in Sander's compilation of Henry's law constants (doi:10.1063/1.1562632).
Where “and” joins values, the source holds several entries; their conditions need not be identical. Equal entries are not always repeated.

Experiment: Henry solubility constant Hcp at 298.15 K (mol/(m3 Pa))
Conditions: reference: Li et al. (2003); cited value
In the case of `Clc1ccc(-c2cc(Cl)ccc2Cl)cc1` [2,4',5-trichlorobiphenyl], the “Henry solubility constant Hcp” value is listed as 0.027 and 0.029. For `Clc1ccc(Cl)c(-c2cc(Cl)c(Cl)cc2Cl)c1` [2,2',4,5,5'-pentachlorobiphenyl], the “Henry solubility constant Hcp” value is given as 0.032 and 0.041. For `Clc1ccc(Cl)c(-c2cc(Cl)ccc2Cl)c1` [2,2',5,5'-tetrachlorobiphenyl], the “Henry solubility constant Hcp” value is listed as 0.035 and 0.04. In the case of `Clc1cc(-c2ccccc2)c(Cl)c(Cl)c1Cl` [2,3,4,5-tetrachlorobiphenyl], the “Henry solubility constant Hcp” value is listed as 0.049 and 0.05. For `Clc1cc(Cl)c(-c2ccc(Cl)c(Cl)c2Cl)cc1Cl` [2,2',3,4,4',5'-hexachlorobiphenyl], the “Henry solubility constant Hcp” value is listed as 0.025 and 0.033. In the case of `Clc1ccc(-c2ccc(Cl)c(Cl)c2Cl)cc1Cl` [2,3,3',4,4'-pentachlorobiphenyl], the “Henry solubility constant Hcp” value is given as 0.03 and 0.072. For `Clc1cc(Cl)c(-c2cc(Cl)c(Cl)cc2Cl)cc1Cl` [2,2',4,4',5,5'-hexachlorobiphenyl], the “Henry solubility constant Hcp” value is listed as 0.04 and 0.051. For `Clc1cc(Cl)c(-c2c(Cl)cc(Cl)cc2Cl)c(Cl)c1` [2,2',4,4',6,6'-hexachlorobiphenyl], the “Henry solubility constant Hcp” value is listed as 0.013 and 0.011. In the case of `Clc1cc(-c2cc(Cl)c(Cl)c(Cl)c2Cl)c(Cl)c(Cl)c1Cl` [2,2',3,3',4,4',5,5'-octachlorobiphenyl], the “Henry solubility constant Hcp” value is given as 0.15 and 0.23. For `Clc1ccc(-c2ccccc2Cl)cc1` [2,4'-dichlorobiphenyl], the “Henry solubility constant Hcp” value is given as 0.038 and 0.044. For `Clc1ccc(-c2ccc(Cl)cc2)cc1` [4,4'-dichlorobiphenyl], the “Henry solubility constant Hcp” value is listed as 0.07 and 0.075. In the case of `Clc1ccc(-c2cc(Cl)c(Cl)cc2Cl)cc1Cl` [2,3',4,4',5-pentachlorobiphenyl], the “Henry solubility constant Hcp” value is given as 0.031 and 0.069.
